A word on the solubility: it is the dissolved amount per volume that the medium holds.

Here are results for 4 compounds from patent US5914329A, “Dimesylate salts of neuropeptide Y ligands” (Pfizer Inc., priority 1997, dated 1999).

The nature of one data set: Chemical stability. The data set is classed as physicochemical.
Data set [1] is described as follows: Aqueous solubility of salts.
Data set [2] in a line: Bioavailability (species not stated). The settings on record: in words.
Data set [3] can be described thus: Hygroscopicity evaluation at high humidities. The data set is classed as physicochemical. The settings on record: humidities below 90%.

Where a name gives a salt, the structure may show the parent alone.

For `CCOc1cccc(C2(N3CCN(c4ccccc4)CC3)CCC(C)CC2)c1` (stereo not drawn) [compound I, dimesylate salt of cis-1-(3-ethoxyphenyl)-1-(4-phenylpiperazin-1-yl)-4-methyl-cyclohexane], the stability result in “Chemical stability” (in words) was “good”. Further, the solubility in data set [1] (solubility, dimesylate salt, medium not stated) was found to be 31 mg/mL. Also, the bioavailability entry in data set [2] is “good”.

`CCOc1cccc(C2(N3CCN(c4ccccc4)CC3)CCC(C)CC2)c1` (stereo not drawn) [dihydrochloride, cis-1-(3-ethoxyphenyl)-1-(4-phenylpiperazin-1-yl)-4-methyl-cyclohexane, reference compound]: the “stability in the solid state” value in the data set “Chemical stability” (solid state, in words) is recorded as “unstable”. In addition, in the data set “Bioavailability in dogs”, the bioavailability in dogs was 75%. Moreover, the solubility in data set [1] (water, water solubility) turned out to be 1 mg/mL.

For `CCOc1cccc(C2(N3CCN(c4ccccc4)CC3)CCC(C)CC2)c1` (stereo not drawn) [form A, Dimesylate salt of cis-1-(3-ethoxyphenyl)-1-(4-phenylpiperazin-1-yl)-4-methylcyclohexane], the Chemical stability result in the data set “Chemical stability” (40° C. in 75% RH) is “no detectable degradation”; in the data set “Chemical stability” (70° C., at ambient humidity), “no detectable degradation”; in the data set “Chemical stability” (light box under fluorescent light), “no detectable degradation”. Moreover, the hygroscopicity entry in data set [3] is “non-hygroscopic”. The solubility in data set [1] (water, Aqueous solubility, isolated form A of the dimesylate salt) stood at 31 mg/mL.

On to `CCOc1cccc(C2(N3CCN(c4ccccc4)CC3)CCC(C)CC2)c1` (stereo not drawn) [fumarate salt, cis-1-(3-ethoxyphenyl)-1-(4-phenylpiperazin-1-yl)-4-methyl-cyclohexane, reference compound], for which, in data set [1] (water, solubility in water, in water), the solubility amounted to 0.04 mg/mL.
